From US5461061A, “Centrally acting 6,7,8,9-tetrahydro-3H-benz(E)indole heterocyclics” (priority 1993, dated 1995)
Structures can show the parent of a compound that is named as a salt. Where two headings read alike, the source gives them in different places.

Experiments:
5-HT1A sites = settings: 3H-8-OH-DPAT, rat brain homogenates; cited from earlier work
5-HT1A = settings: cited from earlier work
[1] = Stability remark on isolated product; assay type: physicochemical
[2] = system: central dopamine receptor (DOPA accumulation in the striatum); assay: In vivo rat brain tyrosine hydroxylation (DOPA accumulation, striatum) after reserpine pretreatment and NSD 1015; settings: sc, reserpine-pretreated rats, bracket = highest dose tested, read-out: Dopa ED50 (stri)
Protocol: (§1) In vivo determination of a rat brain tyrosine and tryptophan hydroxylation after reserpine pretreatment (biochemically monitored dopamine and 5-HT receptor activity).
(§2) The compounds under evaluation were tested biochemically for central dopamine and 5-HT receptor (pre- and/or post-synaptic) stimulating activity. The concept of this biochemical screening method is that a dopamine or 5-HT-receptor agonist will stimulate the receptor and through regulatory feedback systems effect a decline in tyrosine or tryptophan hydroxylating activity, respectively, and a subsequent reduction in the synthesis rate for dopamine and 5-HT in the presynaptic neuron. Dopa and 5-HTP formation, as determined after in vivo inhibition of the aromatic L-amino acid decarboxylase with NSD 1015 (3-hydroxybenzylhydrazine hydrochloride) are taken as indirect measures of dopamine and 5-HT synthesis rates, respectively as described by Wikstrom et al., J. Med. Chem., 27, 1030, 1984.
Rats (150-300 g) pretreated with reserpine (5 mg/kg, 18 hours before) were given the test compounds. Gross behavioral observations (changes in motility, hindleg abduction, etc.) were made. […]

[3] = system: central 5-HT receptor (5-HTP accumulation in the limbic forebrain); assay: In vivo rat brain tryptophan hydroxylation (5-HTP accumulation, limbic forebrain) after reserpine pretreatment and NSD 1015; settings: reserpine-pretreated rats, read-out: 5-HTP ED50 (limb)
Protocol: as §1, §2
(§3) Rats (150-300 g) pretreated with reserpine (5 mg/kg, 18 hours before) were given the test compounds. Gross behavioral observations (changes in motility, hindleg abduction, etc.) were made. Subsequent administration of NSD 1015, decapitation, brain dissection (corpora striata, the limbic forebrain and the remaining hemispheral portions (mainly cortex) or rat brain), homogenization, centrifugation, ion-exchange chromatography and spectrofluorimetric measurements (all as described in detail by Wikstrom, et al., M. Med. Chem., 21, 864-867, 1978 and reference cited therein), or by HPLC/EC, gave the actual […] and 5-HTP levels. Several doses (n=4-6) were tested for each compound and brain area. The dose of a compound giving 50% of the maximal reduction of the 5-HTP level in the rat brain part was then estimated.
(§4) "+" indicates a motoric activation of the animals.

[4] = system: motor activity / gross behavior (DA or 5-HT behavioral syndrome); assay: Motor activity and gross behavior in reserpine-pretreated rats; assay type: in vivo, rat
Description: Antagonism of the reserpine-induced "neuroleptic syndrome" in the rat (gross behavior)
Depletion of the monoamine stores with reserpine brings about a "neuroleptic syndrome" characterized by hypomotility, catalepsy, muscle rigidity, hunch-backed posture as well as a number of other central and peripheral signs of monoamine depletion. The whole or parts of this syndrome can be reversed by the administration of drugs that stimulate dopamine or 5-HT receptors directly or indirectly.
Stimulation of the dopamine receptors, with apomorphine for example, gives rise to both locomotion and stereotyped behavior such as sniffing, gnawing and jumping. On the other hand, stimulation of the 5-HT receptors, with 5-hydroxytryptophan (5-HTP) combined with MAO-inhibitors for example, gives rise to a very different behavior.
as §3, §4

central DA receptor = settings: cited from earlier work
dopamine receptors = settings: cited from earlier work
[5] = biological target: noradrenaline (NA) (α2) receptor; assay: In vitro binding, brain noradrenaline alpha2 receptor sites; set-up: species or system rat; settings: non-pretreated rats
[6] = Blood pressure, heart rate and rectal temperature in awake spontaneously hypertensive rats (SHR); assay type: in vivo, rat (spontaneously hypertensive; settings: for Δtemp max: rectal; for bioavailability: rat, in vivo
Protocol: (§5) The male spontaneously hypertensive rats (SHR), or normotensive Sprague-Dawley rats # were implanted wit catheters in the arteria carotis and vena jugularis. The blood pressure (BP), heart rate (HR) and rectal temperature were recorded 24 hours later in the awake rat after per oral (p.o.) or intravenous *i.v.) administration of test drugs. Recording time was at least 90 minutes. Shown are the maximal effects during the 90 min recording period expressed as the deviation from baseline values (SHR:BP; 174±6 mmHG, HR; 366±10 beats/min, RT; 38.7±0.15 C and normotensives: BP; 111±3 mmHG, HR; 369±15 beats/min, RT; 38.7±0.23 C, means ±SEM, n=7) (means ±SEM, n=3-4). In case of a biphasic response (heart rate) during the 90 min, both maximal and minimal levels are shown period. The bioavailability calculations were based on the areas under the curves after po and iv administration.
(§6) *denotes statistical significant difference (p<0.05, or less) compared to saline treated controls (ANOVA followed by Fischer's test).

[7] = Blood pressure, heart rate and rectal temperature in awake normotensive rats (#); assay type: in vivo, rat (normotensive Sprague-Dawley); settings: 0.2 μmol/kg i.v.
Protocol: as §5, §6

[8] = sc, bracket = highest dose tested
[9] = 2.0 μmol/kg i.v., (±) 13a / (±) 13b
[10] = 2.0 μmol/kg i.v., second printed (±) 13a line (biphasic, maximal level) / first printed (±) 13b line
[11] = 10.0 μmol/kg i.v., first printed (±) 13a line, no # printed
[12] = 10.0 μmol/kg i.v., second printed (±) 13a line
[13] = 10.0 μmol/kg p.o., (±) 13a (biphasic, maximal level) / first printed (±) 13b line
[14] = 10.0 μmol/kg p.o., (±) 13a / first (±) 13b

For `CN(C)C1CCc2ccc3[nH]ccc3c2C1` (racemic) [6,7,8,9-tetrahydro-N,N-dimethyl-3H-benz(e)indole-8-amine], the 5-HT1A binding affinity (5-HT1A sites) is listed as “high affinity” and the “5-HT1A agonist properties in vivo” value (5-HT1A) is listed as “exhibits 5-HT1A agonist properties in vivo”.

In the case of `CN(C)C1CCc2ccc3[nH]cc(Br)c3c2C1` (stereo not drawn) [Example 12, 1-Bromo-6,7,8,9-tetrahydro-N,N-dimethyl-8-amino-3H-benz[e]indole], the “stability of the product” value [1] is reported as “unstable”.

With `CCCN(CCC)C1CCc2ccc3[nH]ccc3c2C1` (racemic) [(±)-12b, 6,7,8,9-tetrahydro-N,N-dipropyl-3H-benz(e)indole-8-amine] the ED50 [2] was 0.28 µmol/kg, the ED50 [3, 8] was 0.1 µmol/kg and the “Mot. act. (+/-)” value ([4]; sc) was “DA + 5-HT”.

In the case of `CCCN(CCC)C1CCc2cc3cc[nH]c3cc2C1` (stereo not drawn) [5,6,7,8-N,N-di-n-propyl-1H-benz(f)indole-7-amine], the dopaminergic activity (central DA receptor) is given as “dopaminergically inactive”.

With `CCCN(CCC)C1COc2ccc3[nH]ccc3c2C1` (racemic) [(±)-21, 8-N,N-dipropylamino-8,9-dihydro-2H-pyrano-(3,2-e)-indol] the ED50 [2] was 1 µmol/kg, the ED50 [3, 8] was 3.1 µmol/kg and the “Mot. act. (+/-)” value ([4]; sc) was “+DA”.

In the case of `CCCN(CCC)C1COc2ccc3[nH]cc(C=O)c3c2C1` (racemic) [(±)-22, 1-formyl-8-N,N-dipropylamino-8,9-dihydro-2H-pyrano-(3,2-e)indole], the ED50 [3, 8] is reported as 0.4 µmol/kg and the “Mot. act. (+/-)” value ([4]; sc) is reported as “+5-HT”.

In the case of `O=C1CC2(CCCC2)CC(=O)N1CCCCN1CCN(c2ncccn2)CC1` [Buspirone hydrochloride], the dopamine receptor antagonism (dopamine receptors) is given as “antagonizes dopamine receptors at the same dose it stimulates 5-HT1A receptors”.

With `CN(C)[C@@H]1CCc2ccc3[nH]cc(C=O)c3c2C1` [(+)-13a, (+)-1-formyl-6,7,8,9-tetrahydro-N,N-dimethyl-3H-benz(e) indole-8-amine] the ED50 [3, 8] was 1 µmol/kg, the IC50 [5] was 0.14 µM and the “Mot. act. (+/-)” value ([4]; sc) was “+5-HT”.

In the case of `CC1(C)CC(=O)N(CCCCN2CCN(c3ncccn3)CC2)C(=O)C1` [gepirone], the dopamine receptor antagonism (dopamine receptors) is given as “has dopamine antagonist properties”.

For `CN(C)C1CCc2ccc3[nH]cc(C=O)c3c2C1` (racemic) [(±)-13a, 1-Formyl-6,7,8,9-tetrahydro-N,N-dimethyl-3H-benz(e)indole-8-amine], the ED50 ([3]; po) was 7 µmol/kg, the ED50 [3, 8] was 4 µmol/kg and the “Mot. act. (+/-)” value ([4]; po) was “(+)5-HT”. The “Mot. act. (+/-)” value ([4]; sc) was “(+)5-HT”, the ΔBP max ([6]; 2.0 μmol/kg i.v., (±) 13a) was -12 ± 4 mm Hg and the ΔHR max ([6]; 2.0 μmol/kg i.v., (±) 13a) was “+35 ± 34 beats/min”. For the same molecule, the “ΔHR max (minimal level of biphasic response)” value ([6]; 2.0 μmol/kg i.v., (±) 13a) was -33 ± 23 beats/min, the “duration ΔBP” value [6, 9] was 150 min and the ΔBP max [6, 9] was -60 ± 5 mm Hg. For the same molecule, the Δtemp max [6, 9] was -0.2 ± 0.65 °C, the Δtemp max ([6]; 2.0 μmol/kg i.v., (±) 13a) was -0.2 ± 0.40 °C and the ΔHR max [6, 10] was “+55 ± 14 beats/min”. The ΔBP max ([6]; 2.0 μmol/kg p.o.) was -23 ± 2 mm Hg, the ΔHR max ([6]; 2.0 μmol/kg p.o.) was “+37 ± 44 beats/min” and the Δtemp max ([6]; 2.0 μmol/kg p.o.) was “+1.2 ± 0 °C”. The ΔHR max ([6]; 10.0 μmol/kg i.v., (±) 13a, biphasic, maximal level) was “+87 ± 18 beats/min”, the ΔBP max [6, 11] was -3 ± 1 mm Hg and the ΔHR max [6, 11] was “+70 ± 47 beats/min”. The Δtemp max [6, 11] was -1.0 ± 0.15 °C, the “duration ΔBP” value [6, 12] was over 90 min and the ΔBP max [6, 12] was -57 ± 4 mm Hg. The “ΔHR max (minimal level of biphasic response)” value [6, 12] was -37 ± 3 beats/min, the Δtemp max [6, 12] was -0.7 ± 0.33 °C and the “ΔHR max (minimal level of biphasic response)” value ([6]; 10.0 μmol/kg p.o.) was -39 ± 18 beats/min. The ΔHR max [6, 13] was “+24 ± 43 beats/min”, the “duration ΔBP” value [6, 14] was 75 min and the ΔBP max [6, 14] was -43 ± 22 mm Hg. The Δtemp max [6, 14] was “+0.7 ± 0.32 °C” and the bioavailability ([6]; 10 umol/kg, 10.0 μmol/kg p.o., from areas under the curves after po and iv administration, read-out: Bioavail) was 48%.

In the case of `CCCN(CCC)C1CCc2ccc3[nH]cc(C=O)c3c2C1` (racemic) [(±)-13b, 1-formyl-6,7,8,9-tetrahydro-N,N-dipropyl-3H-benz(e)indole-8-amine], the ED50 [3, 8] is reported as 0.06 µmol/kg, the IC50 [5] is reported as 3.7 µM and the “Mot. act. (+/-)” value ([4]; sc) is reported as “+5-HT”. The “duration ΔBP” value [6, 9] was 90 min, the ΔBP max [6, 9] was -35 ± 3 mm Hg and the Δtemp max [6, 9] was -1.5 ± 0.3 °C. The ΔBP max ([6]; 2.0 μmol/kg i.v., (±) 13b) was “+14 ± 1 mm Hg”, the ΔHR max ([6]; 2.0 μmol/kg i.v., (±) 13b) was -70 ± 15 beats/min and the Δtemp max ([6]; 2.0 μmol/kg i.v., (±) 13b) was -1.6 ± 0.2 °C. For the same molecule, the ΔHR max [6, 10] was “+110 ± 10 beats/min”, the ΔHR max [6, 13] was “+78 ± 11 beats/min” and the “duration ΔBP” value [6, 14] was over 120 min. The ΔBP max [6, 14] was -55 ± 5 mm Hg, the Δtemp max [6, 14] was -1.0 ± 0.3 °C and the “duration ΔBP” value ([6]; 10.0 μmol/kg p.o., (±) 13b) was 60 min. For the same molecule, the ΔBP max ([6]; 10.0 μmol/kg p.o., (±) 13b) was “+28 ± 6 mm Hg”, the ΔHR max ([6]; 10.0 μmol/kg p.o., (±) 13b) was “+70 ± 30 beats/min” and the Δtemp max ([6]; 10.0 μmol/kg p.o., (±) 13b) was -0.8 ± 0.4 °C. It also gave a bioavailability ([6]; po) of 36%.

In the case of `CN(C)[C@@H]1CCc2ccc3[nH]ccc3c2C1` [R-6,7,8,9-tetrahydro-N,N-dimethyl-3H-benz(e)indole-8-amine], the 5-HT1A binding affinity (5-HT1A sites) is given as “high affinity”.

With `CCCN(CCC)C1CCc2cccc(O)c2C1` (racemic) [Compound 8-OH-DPAT, reference compound] the ED50 ([3]; po) was 3 µmol/kg, the ED50 [3, 8] was 0.048 µmol/kg and the “Mot. act. (+/-)” value ([4]; sc) was “++5-HT”. For the same molecule, the ΔBP max [7] was -12 ± 6 mm Hg, the ΔHR max [7] was -83 ± 16 beats/min and the Δtemp max ([7]; rectal) was -1.5 ± 0.27 °C.
